# Measurements from patent publication US20130143902A1, “COMPOSITIONS AND METHODS OF TREATING A PROLIFERATIVE DISEASE WITH A QUINAZOLINONE DERIVATIVE” (GILEAD CALISTOGA LLC, priority 2011, published 2013).
# Experiments:
# PI3K p110α [1] = biological target: PI3K p110α (Mus musculus, UniProt P42337); assay: Cellular p110α signaling: PDGF-stimulated MEFs, pAkt Western blot; format: cell-based, murine; conditions: cellular assay, MEFs, PDGF; read-out: EC50 p110α
# Method: (§4) To analyze PI3K p110α and p110β signaling, murine embryo fibroblast (MEFs) were removed from FBS and starved for 2 hours followed by stimulation with 10 ng/mL of PDGF (Cell Signaling Technologies, Danvers, Mass.) or 10 μM of LPA (Echelon, Salt Lake City, Utah) for 10 minutes at 37° C., respectively. After washing once in cold phosphate-buffered saline (PBS), the cell pellet was resuspended in 1× cell lysis buffer (Cell Signaling Technologies) supplemented with mini protease inhibitor mix (Roche, Indianapolis, Ind.), phosphate inhibitor cocktail set I and II (Calbiochem, San Diego, Calif.) for 15 minutes on ice. Whole-cell lysates were obtained by centrifugation at 16,000 g for 10 minutes at 4° C., and the soluble protein was analyzed by Western blotting for Akt and pAkt levels. To analyze PI3K p110δ and p110γ signaling, basophil activation was measured in isolated PBMC or whole blood using the Flow2 CAST kit according to the manufacture's standardized methods (Buhlman Laboratories AG, Switzerland). Briefly, p110δ was activated with anti-FCεRI and p110γ was activated with fMLP (2 μM) in the absence or presence of compounds. To monitor the basophil cell population and cellular activation, anti-CD63-FITC and anti-CCR3-PE antibodies were added to each sample. Cells were fixed and analyzed on a FC500 MPL flow cytometer (Beckman Coulter, Brea, Calif.).
# PI3K p110β [2] = biological target: T1, PI3K p110β (Mus musculus, UniProt Q8BTI9); assay: Cellular p110β signaling: LPA-stimulated MEFs, pAkt Western blot; format: cell-based, murine; conditions: cellular assay, read-out: EC50 p110β
# T1 construct: endogenous in cells; host or cells: murine embryo fibroblasts (MEFs)
# T1 sequence (Q8BTI9 whole entry): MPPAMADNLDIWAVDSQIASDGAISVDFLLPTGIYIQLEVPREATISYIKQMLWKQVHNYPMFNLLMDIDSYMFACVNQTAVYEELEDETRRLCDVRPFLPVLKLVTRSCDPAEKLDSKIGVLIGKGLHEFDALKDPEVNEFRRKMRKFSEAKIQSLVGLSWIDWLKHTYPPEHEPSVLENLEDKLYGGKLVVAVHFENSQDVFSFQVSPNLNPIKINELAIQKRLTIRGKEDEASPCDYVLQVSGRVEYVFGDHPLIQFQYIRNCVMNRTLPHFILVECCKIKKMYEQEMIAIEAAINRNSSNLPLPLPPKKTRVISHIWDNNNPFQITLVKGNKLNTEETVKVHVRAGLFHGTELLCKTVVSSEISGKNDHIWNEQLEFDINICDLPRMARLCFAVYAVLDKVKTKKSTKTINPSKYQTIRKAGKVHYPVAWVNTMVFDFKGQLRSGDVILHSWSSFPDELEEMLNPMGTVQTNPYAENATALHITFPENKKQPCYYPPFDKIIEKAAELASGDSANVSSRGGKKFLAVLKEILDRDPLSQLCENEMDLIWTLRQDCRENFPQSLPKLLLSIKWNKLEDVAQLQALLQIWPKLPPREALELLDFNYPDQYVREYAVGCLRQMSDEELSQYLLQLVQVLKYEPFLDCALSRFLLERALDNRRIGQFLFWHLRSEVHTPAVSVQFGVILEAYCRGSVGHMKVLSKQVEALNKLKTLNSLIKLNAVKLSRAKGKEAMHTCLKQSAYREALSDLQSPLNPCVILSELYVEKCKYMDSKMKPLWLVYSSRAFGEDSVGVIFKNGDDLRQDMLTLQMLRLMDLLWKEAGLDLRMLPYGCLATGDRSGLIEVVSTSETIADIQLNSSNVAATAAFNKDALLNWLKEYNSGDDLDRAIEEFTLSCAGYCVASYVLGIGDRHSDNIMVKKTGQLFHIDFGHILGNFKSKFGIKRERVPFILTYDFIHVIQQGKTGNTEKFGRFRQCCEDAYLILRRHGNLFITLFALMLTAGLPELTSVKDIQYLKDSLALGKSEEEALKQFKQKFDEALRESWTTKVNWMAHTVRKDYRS
# T1 sequence (P26450 whole entry partner): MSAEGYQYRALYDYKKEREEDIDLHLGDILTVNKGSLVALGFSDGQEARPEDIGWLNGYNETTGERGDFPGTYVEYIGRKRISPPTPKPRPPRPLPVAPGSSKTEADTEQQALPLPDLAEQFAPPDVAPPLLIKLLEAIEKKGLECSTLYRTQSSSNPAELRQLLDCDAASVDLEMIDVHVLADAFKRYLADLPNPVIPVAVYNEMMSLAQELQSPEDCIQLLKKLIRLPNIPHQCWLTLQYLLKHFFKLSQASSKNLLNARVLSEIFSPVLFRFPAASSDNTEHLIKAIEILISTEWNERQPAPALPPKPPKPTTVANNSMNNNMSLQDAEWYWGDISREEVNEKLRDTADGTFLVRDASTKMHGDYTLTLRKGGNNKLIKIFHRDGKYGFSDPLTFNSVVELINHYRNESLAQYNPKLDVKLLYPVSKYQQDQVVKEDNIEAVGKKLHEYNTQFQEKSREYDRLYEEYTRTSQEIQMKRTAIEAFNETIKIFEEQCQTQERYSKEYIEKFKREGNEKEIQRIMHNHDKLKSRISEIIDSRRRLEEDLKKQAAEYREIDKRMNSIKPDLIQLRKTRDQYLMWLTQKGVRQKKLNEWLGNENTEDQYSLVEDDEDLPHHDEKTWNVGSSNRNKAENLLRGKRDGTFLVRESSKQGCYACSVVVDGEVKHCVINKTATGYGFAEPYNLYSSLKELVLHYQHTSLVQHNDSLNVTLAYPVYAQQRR
# Method: as §4
# Solid tumor = assay: Cellular viability, solid tumor; format: cell-based; conditions: N = 14
# Method: (§1) For primary T-ALL samples, cell viability was determined using the BD Cell Viability kit (BD Biosciences) and fluorescent counting beads as previously described in Armstrong, F. et al., NOTCH is a key regulator of human T-cell acute leukemia initiating cell activity, Blood 113, 1730-1740 (2009). Cells were plated with MS5-DL1 stroma cells. After 72 hours following treatment, cells were harvested and stained with an APC-conjugated anti-human CD45 according to the manufacturer's instructions. For solid tumor cell lines, cellular viability was determined using the AlamarBlue kit (Invitrogen). About 10,000 cells in 100 μL of media containing 10% FBS were aliquoted into individual wells of a 96-well plate and treated with vehicle (DMSO) or compound in triplicate for 24 hours. Ten μL of AlamarBlue reagent was added to each well and incubated for 4 hours at 37° C. with 5% CO2. Fluorescence was measured with an excitation wavelength at 530 to 560 nm and emission wavelength at 590 nm using Spectramax M5 plate reader (Molecular Devices, Sunnyvale, Calif.).
# (§2) Cellular viability and pAkt activity were used to determine effects of Compounds A, C, and D in solid tumor, B-cell malignancies, and T-cell malignancies.
# B Cell Malignancies = assay: Cellular viability, B cell malignancies; format: cell-based; conditions: N = 7
# Source text: as §2
# [3] = tested on: pAkt in B Cell Malignancies; assay: pAkt activity, B cell malignancies; format: cell-based; conditions: N = 7
# Source text: as §2
# T Cell Malignancies = assay: Cellular viability, T cell malignancies; format: cell-based; conditions: N = 7
# Source text: as §2
# PTEN null T-ALL = assay: Diseased Lck/PTEN^fl/fl mice with PTEN null T-ALL; format: in vivo
# Method: Mouse whole blood was incubated with appropriate antibodies and processed using the BD Bioscience BD FACS Lysing Solution according to the manufacturer's instructions. Immediately after lysis, cells were permeabilized with 0.025% Tween-20 in lysing solution for 15 minutes, then incubated with Ki67 antibodies. Single cell suspensions of thymocytes were isolated and stained with the appropriate antibodies as described in Swat, W. et al., Essential role of PI3 Kdelta and PI3 Kgamma in thymocyte survival, Blood 107, 2415-2422 (2006).
# All mice were kept in specific pathogen-free facility at Columbia University Medical Center. All procedures were performed in accordance with the guidelines of the Institutional Animal Care and Use Committee. Lck-cre, NOD.Cg-Prkdc^scid Il2rg^tmlWjl/Sz and Gt(ROSA)26Sor^tml(Luc)Kael/J mice were obtained from the Jackson Laboratory. Mice deficient for PTEN in the T-cell lineage were generated by crossing Lck-cre with floxed PTEN. P110γ^−/− and p110δ^−/− mice as described in Swat, W. et al., Essential role of PI3 Kdelta and PI3 Kgamma in thymocyte survival, Blood 107, 2415-2422 (2006). The animals were intercrossed with Lck-cre/PTEN^fl/fl animals to generate mice homozygous mutant for either p110γ or p110δ and PTEN or homozygous mutant for p110γ, 110δ, and PTEN.
# Lck/PTEN^fl/fl mice were crossed with the mice having a luciferase cDNA, preceded by a LoxP-stop-LoxP cassette was introduced into the ubiquitously expressed ROSA26 locus. […] The results are consistent with the reduction in whole blood cells and CD4 single positive population of tumor cells.
# Lck/PTEN^fl/fl mice having T-ALL were administered with Compound B at an oral dose of 10 mg/kg every 8 hours or DMSO vehicle for a period of 7 days. […] Compound B extended the median survival to 45 days compared to 7.5 days for the vehicle group (data not shown).
# Diseased Lck/PTEN^fl/fl mice (i.e. Lck/PTEN^fl/fl mice diagnosed with T-ALL) were treated with Compounds B for a period of 7 days. Mice were examined for sequential blood counts, peripheral smears, and flow cytometric analyses. […] Forward scatter (FSC) and Ki67 staining were indicators of cell size and proliferation, respectively; and apoptosis was detected by assessing the […] population after PI staining.
# PTEN^fl/fl mice were crossed with the mice having a luciferase cDNA, preceded by a LoxP-stop-LoxP cassette was introduced into the ubiquitously expressed ROSA26 locus. Progeny were then crossed with Lck-cre transgenics to delete PTEN in T-cell progenitors and induce expression of luciferase. Imaging on T-ALL tumor bearing mice was performed at Day 0 and 4 after treatment of Compound B or vehicle.
# CCRF-CEM cells [4] = assay: Proliferation and apoptosis of CCRF-CEM cells; format: cell-based; conditions: 1, 2.5, or 5 μM, within 24 hours, persisted 4 days
# Method: CCRF-CEM cells were obtained from ATCC and grown in RPMI-1640 medium containing 10% FBS and antibiotics.
# Cell counts for mice thymii were determined as described in Swat, W. et al., Essential role of PI3 Kdelta and PI3 Kgamma in thymocyte survival, Blood 107, 2415-2422 (2006). Cell proliferation of untransfected or shRNA transfected CCRF-CEM cells was followed by cell counting of samples in triplicate using a hemocytometer.
# Cells were stained with APC-conjugated Annexin-V (BD Biosciences) in Annexin Binding Buffer (Miltyeni Biotec) and analyzed by flow cytometry.
# CCRF-CEM cells, a PTEN null acute lymphoblastoid leukemia cell line, were treated with Compound B of 1, 2.5, or 5 μM or control of DMSO vehicle for a period of 4 days.
# CCRF-CEM cells [5] = assay: Immunoblot of signaling and pro-apoptotic pathways in CCRF-CEM cells; format: cell-based
# Method: Cell lysates (from cell lines or thymocytes) were prepared on ice in M-PER Mammalian Protein Extraction reagent (Pierce) containing a cocktail of protease and phosphatase inhibitors as described in Swat, W. et al., Essential role of PI3 Kdelta and PI3 Kgamma in thymocyte survival, Blood 107, 2415-2422 (2006). Equal amounts of total protein from lysates were separated using SDS-PAGE, transferred to PVDF membrane (Immobilon-P, Millipore). Membranes were incubated overnight incubation with appropriate primary antibodies. Bound antibodies were visualized with HRP-conjugated secondary antibodies and ECL chemistry (SuperPico West, Pierce).
# The ability of Compound B treatment to interfere with proapoptotic effectors such as the BH3-only pro-apoptotic protein BAD and to repress the expression of BIM was also examined. CCRF-CEM cells were treated with Compound B ranging from 0, 0.25, 0.5, 1.0, 2.5, 5.0 and 10 μM.
# CCRF-CEM xenografts = assay: Subcutaneous CCRF-CEM xenograft, bioluminescence; format: in vivo, mice; conditions: 10 mg/kg for 4 days, subcutaneous tumors
# Method: Luminescent CCRF-CEM (CEM-luc) cells were generated by lentiviral infection with FUW-luc and selection with neomycin. Luciferase expression was verified with the Dual-Luciferase Reporter Assay kit (Promega). CEM-luc cells (2.5×10^6) embedded in Matrigel (BD Biosciences) were injected in the flank of NOD.Cg-Prkdc^scid Il2rg^tmlWjl/Sz mice. After 1 week, mice were treated by oral gavage with vehicle (0.5% methyl cellulose, 0.1% Tween-80) or compound every 8 hours daily for 4 days. Mice were anesthetized by isoflurane inhalation […] of D-luciferin ([…], Xenogen). Photonic emission was imaged with the In Vivo Imaging System (IVIS, Xenogen). Tumor bioluminescence was quantified by integrating the photonic flux (photons per second) through a region encircling each tumor using the LIVING IMAGES software package (Xenogen).
# (§3) To assess the in vivo relevance of these observations, mice with subcutaneous or intravenous CCRF-CEM cells were treated with either Compound B or DMSO vehicle. In the subcutaneous xenographs, luciferase expressing CCRF-CEM cells were injected into the flanks of immunodeficient mice and allowed to grow for 1 week before administering vehicle control or 10 mg/kg of Compound B for a period of 4 days. In the intravenous xenographs, treatment commenced 3-day post-injection of tumor cells for a period of 7 days.
# CCRF-CEM xenograft = assay: Intravenous (systemic) CCRF-CEM xenograft, survival; format: in vivo, mice; conditions: treatment for 7 days from 3 days post-injection; vehicle control 23 days
# Method: CCRF-CEM cells (5×10^6) were injected intravenously in fourteen NOD.Cg-Prkdc^scid Il2rg^tmlWjl/Sz mice. After 3 days, mice were segregated into two groups that received compound or vehicle for 7 days. Mice in both groups were then followed until moribund and euthanized.
# as §3
# primary T-ALL tumors = assay: Viability of primary T-ALL tumors; format: cell-based, human; conditions: 1.0, 2.5, and 5.0 μM, 72 hours
# Method: Cryopreserved samples from the Columbia Presbyterian Hospital, the Erasmus MC-Sophia Children's Hospital, and the University of Padua were used. All samples were collected with informed consent and supervised by the institutes' review boards and the Acute Lymphoblastic Leukemia Strategic Scientific Committee.
# as §1, with “Calif.). […]” for “Calif.).”
# PI3K p110β [6] = biological target: T2, PI3K p110β (Homo sapiens, UniProt P42338); assay: SelectScreen in vitro kinase inhibitor assay, p110β; format: biochemical
# T2 construct: purchased Invitrogen Ltd. (SelectScreen service)
# PI3K p110γ [7] = biological target: T3, PI3K p110γ (Homo sapiens, UniProt P48736); assay: SelectScreen in vitro kinase inhibitor assay, p110γ; format: biochemical; conditions: ATP at Km
# PI3K p110δ [8] = biological target: T4, PI3K p110δ (Homo sapiens, UniProt O00329); assay: SelectScreen in vitro kinase inhibitor assay, p110δ; format: biochemical
# T4 construct: endogenous in cells; host or cells: basophils in isolated PBMC or whole blood
# T4 sequence (O00329 whole entry): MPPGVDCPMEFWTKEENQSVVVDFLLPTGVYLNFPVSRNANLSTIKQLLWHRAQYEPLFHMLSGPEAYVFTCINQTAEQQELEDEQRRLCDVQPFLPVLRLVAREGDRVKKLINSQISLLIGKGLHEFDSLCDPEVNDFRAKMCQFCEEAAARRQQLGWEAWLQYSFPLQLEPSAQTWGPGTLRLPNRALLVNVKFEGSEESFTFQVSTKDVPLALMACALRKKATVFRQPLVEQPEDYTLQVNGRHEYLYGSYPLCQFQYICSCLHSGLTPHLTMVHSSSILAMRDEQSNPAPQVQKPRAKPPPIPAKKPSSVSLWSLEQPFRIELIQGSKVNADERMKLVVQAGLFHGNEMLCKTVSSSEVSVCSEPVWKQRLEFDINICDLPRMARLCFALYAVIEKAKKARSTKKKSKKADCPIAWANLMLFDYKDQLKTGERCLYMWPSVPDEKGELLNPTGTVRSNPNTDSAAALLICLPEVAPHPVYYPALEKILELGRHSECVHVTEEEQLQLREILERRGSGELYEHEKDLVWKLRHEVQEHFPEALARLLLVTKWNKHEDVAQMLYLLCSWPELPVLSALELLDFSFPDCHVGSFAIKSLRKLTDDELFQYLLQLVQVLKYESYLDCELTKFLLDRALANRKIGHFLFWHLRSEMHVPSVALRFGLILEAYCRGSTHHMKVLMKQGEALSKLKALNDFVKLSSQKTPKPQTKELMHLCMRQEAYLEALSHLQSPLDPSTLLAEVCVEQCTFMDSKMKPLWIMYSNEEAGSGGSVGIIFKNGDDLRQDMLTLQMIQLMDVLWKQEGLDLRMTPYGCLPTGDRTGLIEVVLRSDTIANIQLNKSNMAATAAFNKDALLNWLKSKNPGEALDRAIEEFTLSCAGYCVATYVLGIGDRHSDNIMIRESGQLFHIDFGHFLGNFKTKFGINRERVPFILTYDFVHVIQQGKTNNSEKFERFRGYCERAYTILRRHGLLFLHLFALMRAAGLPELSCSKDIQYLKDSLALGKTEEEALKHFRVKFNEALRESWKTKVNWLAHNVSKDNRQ
# T4 sequence (P27986 whole entry partner): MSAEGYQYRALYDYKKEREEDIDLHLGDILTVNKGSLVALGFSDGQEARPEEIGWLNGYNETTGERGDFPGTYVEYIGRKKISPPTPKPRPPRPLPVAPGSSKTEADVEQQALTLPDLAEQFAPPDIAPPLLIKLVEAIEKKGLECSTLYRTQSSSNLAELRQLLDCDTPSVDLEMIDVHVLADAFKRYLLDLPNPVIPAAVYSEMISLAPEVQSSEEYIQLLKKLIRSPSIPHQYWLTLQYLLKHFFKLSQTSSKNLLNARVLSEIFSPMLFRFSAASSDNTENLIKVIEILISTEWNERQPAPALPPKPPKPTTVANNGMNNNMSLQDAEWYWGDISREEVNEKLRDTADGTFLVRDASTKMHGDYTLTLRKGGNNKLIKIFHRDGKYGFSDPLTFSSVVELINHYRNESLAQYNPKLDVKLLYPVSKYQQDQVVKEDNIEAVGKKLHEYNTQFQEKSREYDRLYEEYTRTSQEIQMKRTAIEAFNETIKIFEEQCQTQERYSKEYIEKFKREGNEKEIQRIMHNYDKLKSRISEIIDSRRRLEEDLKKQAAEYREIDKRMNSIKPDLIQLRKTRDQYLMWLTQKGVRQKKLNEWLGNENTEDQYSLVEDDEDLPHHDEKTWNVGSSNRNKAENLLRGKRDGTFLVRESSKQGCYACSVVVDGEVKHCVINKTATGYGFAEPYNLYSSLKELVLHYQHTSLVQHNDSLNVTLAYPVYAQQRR
# PI3K p110δ [9] = biological target: T4, PI3K p110δ; assay: Cellular p110δ signaling: basophil activation with anti-FCεRI (Flow2 CAST); format: cell-based; conditions: cellular assay
# Method: as §4
# PI3Kβ (p110 β) = biological target: T5, PI3Kβ (p110 β) (Homo sapiens, UniProt P42338); assay: TR-FRET enzymatic assay, PI3Kβ; format: biochemical
# T5 construct: made in house
# Method: (§5) Enzymatic activity of the class I PI3K isoforms was measured using a time resolved fluorescence resonance energy transfer assay (TR-FRET) that monitors formation of the product 3,4,5-inositol triphosphate molecule (PIP3), as it competes with fluorescently labeled PIP3 for binding to the GRP-1 pleckstrin homology domain protein. An increase in phosphatidylinositide 3-phosphate product results in a decrease in TR-FRET signal as the labeled fluorophore is displaced from the GRP-1 protein binding site. Class I PI3K isoforms were expressed and purified as heterodimeric recombinant proteins. All assay reagents and buffers for the TR-FRET assay were purchased from Millipore. […] After an assay reaction time of 30 minutes at 25° C., reactions were terminated with a final concentration of 10 mM EDTA, 10 nM labeled-PIP3, and 35 nM Europium labeled GRP-1 detector protein before reading TR-FRET on an Envision plate reader. IC50 values were calculated from the fit of the dose-response curves to a four-parameter equation. All IC50 values represent geometric mean values of a minimum of four determinations. These assays generally produced results within 3-fold of the reported mean.
# PI3Kδ (p110δ) = biological target: T6, PI3Kδ (p110δ) (Homo sapiens, UniProt O00329); assay: TR-FRET enzymatic assay, PI3Kδ; format: biochemical
# T6 construct: made in house
# T6 sequence (O00329 whole entry): as the sequence (O00329 whole entry) above
# T6 sequence (P27986 whole entry partner): as the sequence (P27986 whole entry partner) above
# Method: as §5
# PI3Kγ (p110γ) = biological target: T7, PI3Kγ (p110γ) (Homo sapiens, UniProt P48736); assay: TR-FRET enzymatic assay, PI3Kγ; format: biochemical; conditions: 2×Km ATP, geometric mean of at least four determinations
# T7 construct: made in house
# Method: as §5
# pAkt in solid tumor = assay: pAkt activity, solid tumor; format: cell-based; conditions: N = 14
# Source text: as §2
# [10] = tested on: pAkt in T Cell Malignancies; assay: pAkt activity, T cell malignancies; format: cell-based; conditions: N = 7
# Source text: as §2
# PI3K p110α [11] = biological target: PI3K p110α (Homo sapiens, UniProt P42336); assay: biochemical
# PI3Kα (p110α) = PI3Kα (p110α) (Homo sapiens, UniProt P42336); assay: biochemical
# Method: Enzymatic activity of the class I PI3K isoforms was measured using a time resolved fluorescence resonance energy transfer assay (TR-FRET) that monitors formation of the product 3,4,5-inositol triphosphate molecule (PIP3), as it competes with fluorescently labeled PIP3 for binding to the GRP-1 pleckstrin homology domain protein. An increase in phosphatidylinositide 3-phosphate product results in a decrease in TR-FRET signal as the labeled fluorophore is displaced from the GRP-1 protein binding site. Class I PI3K isoforms were expressed and purified as heterodimeric recombinant proteins. All assay reagents and buffers for the TR-FRET assay were purchased from Millipore. […] IC50 values were calculated from the fit of the dose-response curves to a four-parameter equation. All IC50 values represent geometric mean values of a minimum of four determinations. These assays generally produced results within 3-fold of the reported mean.
# PI3K p110γ [12] = biological target: T3, PI3K p110γ; assay: Cellular p110γ signaling: basophil activation with fMLP (Flow2 CAST); format: cell-based; parameters: endogenous in cells; host or cells: basophils in isolated PBMC or whole blood; conditions: cellular assay
# Method: as §4
# Sequence of PI3K p110α (Mus musculus, UniProt P42337) (P42337 whole entry): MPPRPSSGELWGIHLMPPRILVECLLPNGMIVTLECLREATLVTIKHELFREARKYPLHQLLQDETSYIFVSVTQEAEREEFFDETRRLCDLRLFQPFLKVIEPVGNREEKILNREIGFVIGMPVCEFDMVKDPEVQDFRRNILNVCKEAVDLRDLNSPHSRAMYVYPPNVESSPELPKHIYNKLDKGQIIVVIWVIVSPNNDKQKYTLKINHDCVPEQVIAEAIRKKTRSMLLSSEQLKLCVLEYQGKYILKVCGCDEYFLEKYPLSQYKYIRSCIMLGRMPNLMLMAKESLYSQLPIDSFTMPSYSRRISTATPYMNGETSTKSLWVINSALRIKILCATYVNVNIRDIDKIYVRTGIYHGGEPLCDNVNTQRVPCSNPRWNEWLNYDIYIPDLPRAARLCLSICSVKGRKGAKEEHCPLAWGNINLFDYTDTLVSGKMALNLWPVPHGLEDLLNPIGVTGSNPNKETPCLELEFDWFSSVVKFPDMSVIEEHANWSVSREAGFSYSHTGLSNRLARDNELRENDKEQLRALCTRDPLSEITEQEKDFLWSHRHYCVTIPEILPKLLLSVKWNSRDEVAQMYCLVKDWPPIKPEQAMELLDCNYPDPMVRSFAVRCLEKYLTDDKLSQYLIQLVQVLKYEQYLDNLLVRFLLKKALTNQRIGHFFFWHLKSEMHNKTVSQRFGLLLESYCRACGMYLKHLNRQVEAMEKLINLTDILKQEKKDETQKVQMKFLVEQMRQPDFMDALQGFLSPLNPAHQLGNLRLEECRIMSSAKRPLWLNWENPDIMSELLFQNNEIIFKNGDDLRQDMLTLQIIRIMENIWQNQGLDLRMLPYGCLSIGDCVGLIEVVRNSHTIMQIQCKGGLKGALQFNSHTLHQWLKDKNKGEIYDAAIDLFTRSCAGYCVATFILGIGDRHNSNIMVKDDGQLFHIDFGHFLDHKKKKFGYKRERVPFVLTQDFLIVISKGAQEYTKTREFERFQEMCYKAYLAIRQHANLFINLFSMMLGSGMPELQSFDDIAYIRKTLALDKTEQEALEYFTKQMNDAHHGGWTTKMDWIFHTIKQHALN
# Sequence of PI3K p110α (Mus musculus, UniProt P42337) (P26450 whole entry partner): as the sequence (P26450 whole entry partner) above
smiles,measurement,setting,value
CC[C@H](Nc1ncnc2[nH]cnc12)c1nc2cccc(F)c2c(=O)n1-c1ccccc1 [Compound C],EC50,PI3K p110α [1],> 20 µM
same,EC50,PI3K p110β [2],1.9 µM
same,EC50,Solid tumor,11.4 µM
same,EC50,B Cell Malignancies,0.662 µM
same,EC50,[3],0.367 µM
same,EC50,T Cell Malignancies,> 25 µM
"Cc1ccccc1-n1c(C(C)Nc2nc(N)nc3[nH]cnc23)nc2cccc(C)c2c1=O (centres unmarked) [Compound B, 2-(1-(2-amino-9H-purin-6-ylamino)ethyl)-5-methyl-3-o-tolylquinazolin-4(3H)-one]","weights of thymi, liver, spleen, and kidneys","PTEN null T-ALL; Compound B for 7 days, versus vehicle control, P<0.01",significantly less
same,WBC,"PTEN null T-ALL; Compound B treatment for 7 days, by Day 4",significant reduction
same,bioluminescent imaging signals,"PTEN null T-ALL; Compound B treatment, Day 4, versus vehicle",dramatically lower
same,apoptosis (sub-G0 population after propidium iodide staining),"PTEN null T-ALL; Compound B treatment, Day 4 through Day 7",increase in apoptosis
same,median survival,"PTEN null T-ALL; oral 10 mg/kg every 8 hours for 7 days, vehicle group 7.5 days",45 days
same,apoptosis,CCRF-CEM cells [4],promoted apoptosis
same,proliferation,CCRF-CEM cells [4],prevented proliferation
same,phosphorylation of GSK3β and mTOR,CCRF-CEM cells [5]; 0.25 to 10 μM,reduction
same,expression of BIM (including the L and S isoforms),CCRF-CEM cells [5]; Compound B treatment,enhanced expression
same,phosphorylation of BAD,CCRF-CEM cells [5]; Compound B treatment,reduction
same,Akt/PKB (Ser473) phosphorylation,CCRF-CEM cells [5]; […],reduction and complete abrogation
same,"difference in luminescence, treated versus vehicle treated animals",CCRF-CEM xenografts,5 fold
same,median survival time,CCRF-CEM xenograft,35 days
same,viability of tumor cells,primary T-ALL tumors,reduced
C[C@H](Nc1ncnc2[nH]cnc12)c1nc2ccc(F)cc2c(=O)n1-c1ccccc1 [Compound D],IC50,PI3K p110β [6],0.153 µM
same,IC50,PI3K p110γ [7],0.025 µM
same,IC50,PI3K p110δ [8],0.0009 µM
same,EC50,PI3K p110α [1],> 20 µM
same,EC50,PI3K p110β [2],1.2 µM
same,EC50,PI3K p110δ [9],0.0049 µM
same,IC50,PI3Kβ (p110 β),3.4 µM
same,IC50,PI3Kδ (p110δ),0.0093 µM
same,IC50,PI3Kγ (p110γ),1 µM
same,EC50,Solid tumor,4.75 µM
same,EC50,pAkt in solid tumor,0.987 µM
same,EC50,B Cell Malignancies,0.54 µM
same,EC50,[3],0.35 µM
same,EC50,T Cell Malignancies,7.7 µM
same,EC50,[10],0.988 µM
same,IC50,PI3K p110α [11],0.303 µM
same,IC50,PI3Kα (p110α),7.8 µM
same,EC50,PI3K p110γ [12],2.35 µM
